The results in this text go back to patent publication US6608082B1, “Treatment of erectile dysfunction using isoquinoline compound melanocortin receptor ligands” (Lion Bioscience AG, priority 1998, dated 2003).

The target of this test is T1, MCR-1 (Homo sapiens, UniProt Q01726).
T1 construct: expressed in transfected cells; host or cells: HEK 293
Put plainly: Melanocortin receptor binding assay, competition with 125I-HP 467, HEK 293 cells expressing hMCR-1. As to conditions: for % Disp. of 125I-HP 467 (first of duplicate) / % Disp. of 125I-HP 467 (second of duplicate): 10 μM isoquinoline compound; for % Disp. of 125I-HP 467 (first of duplicate): HEK 293 cells expressing MCR-1, duplicate 1; for % Disp. of 125I-HP 467 (second of duplicate): HEK 293 cells expressing MCR-1, duplicate 2; for IC50: read-out: MC-1 IC50; for % Disp. MC-1 10 μM: displacement of 125I-HP 467 at 10 μM isoquinoline compound. On the procedure:
All cell culture media and reagents were obtained from GibcoBRL (Gaithersburg Md.), except for COSMIC CALF SERUM (HyClone; Logan Utah).
Cells were suspended in PBS, 10% COSMIC CALF SERUM and 1 mM CaCl2. Cell suspensions were prepared at a density of 2×10^4 cells/ml for HEK 293 cells expressing hMCR-3, hMCR-4 or hMCR-5, and 1×10^5 cells/ml for HEK 293 cells expressing hMCR-1. Suspensions were placed in a water bath and allowed to warm to 37° C. for 1 hr.
Binding assays were performed in a total volume of 250 μl for HEK 293 cells. […] To each tube was added 4×10^3 HEK 293 cells expressing hMCR-3, hMCR-4 or hMCR-5, or 2×10^4 cells expressing hMCR-1. Assays were incubated for 2.5 hr at 37° C.
GF/B filter plates were prepared by soaking for at least one hour in 5 mg/ml BSA and 10 mM CaCl2. Assays were filtered using a Brandel 96-well cell harvester (Brandel Inc.; Gaithersburg, Md.). The filters were washed four times with cold 50 mM Tris, pH 7.4, the filter plates were dehydrated for 2 hr and 35 μl of MICROSCINT was added to each well. Filter plates were counted using a Packard Topcount (Packard Instrument Co.) and data analyzed using GraphPad PRISM v2.0 (GraphPad Software Inc.; San Diego Calif.) and Microsoft EXCEL v5.0a (Microsoft Corp.; Redmond Wash.).
To assay isoquinoline compounds, binding assays were performed in duplicate in a 96 well format. […] A 0.2 ml aliquot of suspended cells was added to each well to give the cell numbers indicate above, and the cells were incubated at 37° C. for 2.5 hr. Cells were harvested on GF/B filter plates as described above and counted.
(In general: Displacement assays read how much labelled ligand stays bound in the presence of the test substance.)

Where [1] appears, read: inhibition of binding of 125I-HP 467, HEK 293 cells expressing MCR-1.

Where two headings read alike, the source gives them in different places.

T1 sequence (Q01726 whole entry): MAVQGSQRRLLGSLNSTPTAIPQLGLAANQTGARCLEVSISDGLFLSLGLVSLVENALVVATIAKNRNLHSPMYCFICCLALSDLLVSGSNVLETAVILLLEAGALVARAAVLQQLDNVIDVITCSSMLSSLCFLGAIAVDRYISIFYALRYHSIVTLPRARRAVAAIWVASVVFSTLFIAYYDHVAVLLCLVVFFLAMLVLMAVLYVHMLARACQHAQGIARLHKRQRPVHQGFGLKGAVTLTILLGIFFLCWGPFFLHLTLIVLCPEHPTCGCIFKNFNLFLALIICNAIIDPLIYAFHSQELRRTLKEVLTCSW

`CNC(CN)CCCCN1Cc2ccccc2C(CNC2CCCCC2)C1c1cccc2c1OCO2` (stereo not drawn) [TRG 2405-188]: the “% Disp. of 125I-HP 467 (first of duplicate)” value is given as 66.9% and the “% Disp. of 125I-HP 467 (second of duplicate)” value is 60.1%. In general, IC50 refers to the concentration at which inhibition is half-maximal. With `CCCCCc1ccc(C2C(CNCCc3ccccc3)c3ccccc3CN2CCCCC(CN)NCCc2ccccc2)cc1` (stereo not drawn) [TRG 2412-14], the IC50 under setting [1] turned out to be 880 nM.

Turning to `NCCN1Cc2ccccc2C(CNC2CCCCC2)C1c1ccc(O)c(O)c1` (stereo not drawn) [TRG 2405-25], the “% Disp. MC-1 10 μM” value (first of duplicate) stood at 21.6% and the “% Disp. MC-1 10 μM” value (second of duplicate) amounted to 31.9%.

In the case of `CNC(CN)CN1Cc2ccccc2C(CNC2CCCCC2)C1c1ccccc1` (stereo not drawn) [TRG 2405-91], the “% Disp. MC-1 10 μM” value is, setting by setting: (first of duplicate) 35.2%; (second of duplicate) 43.9%. As to `NCCN1Cc2ccccc2C(CNC2CCCCC2)C1c1cccc(C(F)(F)F)c1` (stereo not drawn) [TRG 2405-35], the “% Disp. MC-1 10 μM” value by setting is: (first of duplicate) 54.6%; (second of duplicate) 55%. Turning to `CCCOc1ccc(C2C(CNCCc3ccccc3)c3ccccc3CN2CCCCC(CN)NCc2ccccc2)cc1` (stereo not drawn) [TRG 2412-9], the IC50 under setting [1] worked out at 570 nM. Turning to `CNC(CN)CCCCN1Cc2ccccc2C(CNCCc2ccccc2)C1c1ccc([N+](=O)[O-])cc1` (mixture of isomers) [TRG 2413-5], the IC50 under setting [1] came out at 4880 nM.

With `CCOc1ccc(C2C(CNCCc3ccccc3)c3ccccc3CN2CCCC(CN)NC)cc1` (stereo not drawn) [TRG 2412-19], the IC50 under setting [1] turned out to be 160 nM. With `CCCCOc1ccc(C2C(CNCCc3ccccc3)c3ccccc3CN2CCCCC(CN)NC)cc1` (stereo not drawn) [TRG 2412-10], the IC50 under setting [1] worked out at 310 nM. For the compound `NCCN1Cc2ccccc2C(CNC2CCCCC2)C1c1ccc([N+](=O)[O-])cc1` (stereo not drawn) [TRG 2405-71], the “% Disp. MC-1 10 μM” value was 28.2% (first of duplicate) and 40% (second of duplicate). With `NCCN1Cc2ccccc2C(CNC2CCCCC2)C1c1cc2c3c(c1O)CCCN3CCC2` (stereo not drawn) [TRG 2405-84], the “% Disp. MC-1 10 μM” value is given as 18.2% (first of duplicate) and 37.5% (second of duplicate). For the compound `COc1ccccc1C1C(CNC2CCCCC2)c2ccccc2CN1CCN` (stereo not drawn) [TRG 2405-19], the “% Disp. MC-1 10 μM” value runs as follows: (first of duplicate) 42.2%; (second of duplicate) 36.2%. Regarding `CCCCNc1ccc(C2C(CNCCc3ccccc3)c3ccccc3CN2CCCC(CN)NCc2ccc(OC)cc2)cc1` (stereo not drawn) [TRG 2411-198], under setting [1], the IC50 stood at 120 nM. For the compound `CCCOc1ccc(C2C(CNCCc3ccccc3)c3ccccc3CN2CCCC(CN)NC)cc1` (stereo not drawn) [TRG 2412-22], the IC50 under setting [1] was found to be 200 nM. As to `CNC(CN)CCCCN1Cc2ccccc2C(CNC2CCCCC2)C1c1ccc(OC)c2ccccc12` (mixture of isomers) [TRG 2405-248], the “% Disp. of 125I-HP 467 (first of duplicate)” value worked out at 56.5% and the “% Disp. of 125I-HP 467 (second of duplicate)” value came to 67.9%.

With `NCCN1Cc2ccccc2C(CNC2CCCCC2)C1c1ccc(Cl)cc1Cl` (stereo not drawn) [TRG 2405-10], the “% Disp. MC-1 10 μM” value (first of duplicate) is recorded as 56.9% and the “% Disp. MC-1 10 μM” value (second of duplicate) is given as 53%. Take `NCCN1Cc2ccccc2C(CNC2CCCCC2)C1c1cccs1` (stereo not drawn) [TRG 2405-23]: the “% Disp. MC-1 10 μM” value is 43% (first of duplicate) and 47.8% (second of duplicate). In the case of `CCNc1ccc(C2C(CN)c3ccccc3CN2CCCC(CN)NC)cc1` (stereo not drawn) [TRG 2411-175], the IC50 under setting [1] was determined as 290 nM. Turning to `CNC(CN)CCCCN1Cc2ccccc2C(CNC2CCCCC2)C1c1ccc(Cl)c(Cl)c1` (stereo not drawn) [TRG 2405-206], the “% Disp. of 125I-HP 467 (first of duplicate)” value worked out at 75% and the “% Disp. of 125I-HP 467 (second of duplicate)” value came out at 69%. Turning to `CNC(CN)CN1Cc2ccccc2C(CNC2CCCCC2)C1c1ccc(SC)cc1` (stereo not drawn) [TRG 2405-147], the “% Disp. MC-1 10 μM” value was 31.6% (first of duplicate) and 38.9% (second of duplicate). On to `NCCN[C@H](CN)CCCCN1Cc2ccccc2C(CNCCc2ccccc2)C1c1ccc(-c2ccccc2)cc1` (stereo partly drawn) [TRG 2411-5], for which the IC50 (competition with 125I-HP 467, HEK 293 cells expressing MCR-1) worked out at 790 nM.

`CNC(CN)CN1Cc2ccccc2C(CNC2CCCCC2)C1c1cccc2ccccc12` (stereo not drawn) [TRG 2405-95]: the “% Disp. MC-1 10 μM” value by setting is: (first of duplicate) 45.6%; (second of duplicate) 51.1%. The matching figures for `CNC(CN)CN1Cc2ccccc2C(CNC2CCCCC2)C1c1ccc([N+](=O)[O-])c(O)c1` (mixture of isomers) [TRG 2405-160]: 26.1% and 41.7%. With `CNC(CN)CCCCN1Cc2ccccc2C(CNC2CCCCC2)C1c1ccc(Br)o1` (stereo not drawn) [TRG 2405-269], the “% Disp. of 125I-HP 467 (first of duplicate)” value amounted to 55.9% and the “% Disp. of 125I-HP 467 (second of duplicate)” value amounted to 57.7%.
